Reference: article PMC6407917, “Identification of GSK3186899/DDD853651 as a Preclinical Development Candidate for the Treatment of Visceral Leishmaniasis” (Journal of Medicinal Chemistry, 2018)

What was measured:
Assay in all cases: biochemical
Set-up in all cases: species or system HEK293/K-562/placenta mixed human extract; Kinobeads chemoproteomic competition binding, quantified by TMT LC-MS/MS, dose response up to 20 uM
[1] = target: ABL2 (Homo sapiens, UniProt P42684)
[2] = target: ADK (Homo sapiens, UniProt P55263)
Chain of ADK (P55263 whole entry): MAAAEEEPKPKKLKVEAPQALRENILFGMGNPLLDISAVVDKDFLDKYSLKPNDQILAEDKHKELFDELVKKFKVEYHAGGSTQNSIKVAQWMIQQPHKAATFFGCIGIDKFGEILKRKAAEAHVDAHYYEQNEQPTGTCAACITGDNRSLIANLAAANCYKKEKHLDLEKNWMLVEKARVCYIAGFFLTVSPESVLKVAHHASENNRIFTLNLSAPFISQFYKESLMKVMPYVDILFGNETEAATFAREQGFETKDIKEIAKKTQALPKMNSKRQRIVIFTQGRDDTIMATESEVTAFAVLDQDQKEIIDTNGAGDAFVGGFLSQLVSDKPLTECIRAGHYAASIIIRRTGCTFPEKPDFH

[3] = target: AKT2 (Homo sapiens, UniProt P31751)
Chain of AKT2 (P31751 whole entry): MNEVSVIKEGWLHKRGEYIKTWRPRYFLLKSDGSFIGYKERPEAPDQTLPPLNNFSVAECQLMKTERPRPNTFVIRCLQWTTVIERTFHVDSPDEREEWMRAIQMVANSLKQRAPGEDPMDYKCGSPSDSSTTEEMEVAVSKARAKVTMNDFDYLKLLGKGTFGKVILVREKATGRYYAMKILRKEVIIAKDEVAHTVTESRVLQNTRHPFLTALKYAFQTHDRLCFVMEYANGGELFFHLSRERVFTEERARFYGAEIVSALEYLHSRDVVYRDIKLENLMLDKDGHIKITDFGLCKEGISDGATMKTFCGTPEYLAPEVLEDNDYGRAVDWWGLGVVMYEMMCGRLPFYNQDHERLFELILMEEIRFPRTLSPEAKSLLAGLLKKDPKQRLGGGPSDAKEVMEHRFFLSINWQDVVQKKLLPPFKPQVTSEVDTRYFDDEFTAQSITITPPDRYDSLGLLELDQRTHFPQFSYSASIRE

[4] = target: AURKA (Homo sapiens, UniProt O14965)
Chain of AURKA (O14965 whole entry): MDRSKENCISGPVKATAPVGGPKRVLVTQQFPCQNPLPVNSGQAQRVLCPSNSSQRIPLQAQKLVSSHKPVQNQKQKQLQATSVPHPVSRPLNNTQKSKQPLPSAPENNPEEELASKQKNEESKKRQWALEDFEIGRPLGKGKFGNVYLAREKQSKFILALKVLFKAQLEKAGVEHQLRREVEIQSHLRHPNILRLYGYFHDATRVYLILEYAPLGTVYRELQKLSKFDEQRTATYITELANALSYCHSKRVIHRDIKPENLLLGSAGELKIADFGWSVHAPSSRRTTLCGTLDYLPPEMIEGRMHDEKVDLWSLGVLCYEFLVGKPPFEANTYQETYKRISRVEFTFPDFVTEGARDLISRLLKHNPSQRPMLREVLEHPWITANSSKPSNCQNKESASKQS

[5] = target: CHEK1 (Homo sapiens, UniProt O14757)
[6] = target: GSK3B (Homo sapiens, UniProt P49841)
[7] = target: JAK1 (Homo sapiens, UniProt P23458)
[8] = target: JAK2 (Homo sapiens, UniProt O60674)
Chain of JAK2 (O60674 whole entry): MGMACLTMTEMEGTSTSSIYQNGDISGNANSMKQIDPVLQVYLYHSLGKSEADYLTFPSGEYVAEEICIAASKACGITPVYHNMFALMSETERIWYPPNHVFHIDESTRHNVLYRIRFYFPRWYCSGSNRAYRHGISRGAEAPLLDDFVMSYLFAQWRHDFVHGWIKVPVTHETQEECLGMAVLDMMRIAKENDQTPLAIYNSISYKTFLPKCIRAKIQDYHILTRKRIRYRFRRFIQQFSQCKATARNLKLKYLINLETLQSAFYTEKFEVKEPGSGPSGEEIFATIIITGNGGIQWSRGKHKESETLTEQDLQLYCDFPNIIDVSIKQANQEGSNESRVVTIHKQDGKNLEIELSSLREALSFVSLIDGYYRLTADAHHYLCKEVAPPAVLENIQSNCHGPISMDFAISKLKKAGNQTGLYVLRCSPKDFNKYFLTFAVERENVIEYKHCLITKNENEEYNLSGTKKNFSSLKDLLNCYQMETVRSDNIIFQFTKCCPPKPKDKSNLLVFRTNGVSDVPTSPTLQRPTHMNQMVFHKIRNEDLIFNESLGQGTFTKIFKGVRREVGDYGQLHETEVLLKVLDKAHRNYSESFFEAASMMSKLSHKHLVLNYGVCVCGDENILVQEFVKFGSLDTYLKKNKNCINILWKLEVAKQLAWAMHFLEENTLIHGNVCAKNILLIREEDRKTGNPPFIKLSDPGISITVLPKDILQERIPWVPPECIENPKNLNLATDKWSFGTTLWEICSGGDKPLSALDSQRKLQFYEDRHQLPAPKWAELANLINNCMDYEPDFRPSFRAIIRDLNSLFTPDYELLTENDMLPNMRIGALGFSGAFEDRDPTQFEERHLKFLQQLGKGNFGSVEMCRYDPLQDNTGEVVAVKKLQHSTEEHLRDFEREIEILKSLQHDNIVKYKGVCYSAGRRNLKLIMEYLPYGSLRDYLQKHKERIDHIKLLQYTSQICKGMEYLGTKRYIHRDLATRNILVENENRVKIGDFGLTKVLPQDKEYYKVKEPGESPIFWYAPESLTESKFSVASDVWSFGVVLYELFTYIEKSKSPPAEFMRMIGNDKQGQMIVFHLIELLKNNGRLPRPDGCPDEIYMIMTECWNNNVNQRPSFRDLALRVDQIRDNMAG

[9] = target: JAK3 (Homo sapiens, UniProt P52333)
Chain of JAK3 (P52333 whole entry): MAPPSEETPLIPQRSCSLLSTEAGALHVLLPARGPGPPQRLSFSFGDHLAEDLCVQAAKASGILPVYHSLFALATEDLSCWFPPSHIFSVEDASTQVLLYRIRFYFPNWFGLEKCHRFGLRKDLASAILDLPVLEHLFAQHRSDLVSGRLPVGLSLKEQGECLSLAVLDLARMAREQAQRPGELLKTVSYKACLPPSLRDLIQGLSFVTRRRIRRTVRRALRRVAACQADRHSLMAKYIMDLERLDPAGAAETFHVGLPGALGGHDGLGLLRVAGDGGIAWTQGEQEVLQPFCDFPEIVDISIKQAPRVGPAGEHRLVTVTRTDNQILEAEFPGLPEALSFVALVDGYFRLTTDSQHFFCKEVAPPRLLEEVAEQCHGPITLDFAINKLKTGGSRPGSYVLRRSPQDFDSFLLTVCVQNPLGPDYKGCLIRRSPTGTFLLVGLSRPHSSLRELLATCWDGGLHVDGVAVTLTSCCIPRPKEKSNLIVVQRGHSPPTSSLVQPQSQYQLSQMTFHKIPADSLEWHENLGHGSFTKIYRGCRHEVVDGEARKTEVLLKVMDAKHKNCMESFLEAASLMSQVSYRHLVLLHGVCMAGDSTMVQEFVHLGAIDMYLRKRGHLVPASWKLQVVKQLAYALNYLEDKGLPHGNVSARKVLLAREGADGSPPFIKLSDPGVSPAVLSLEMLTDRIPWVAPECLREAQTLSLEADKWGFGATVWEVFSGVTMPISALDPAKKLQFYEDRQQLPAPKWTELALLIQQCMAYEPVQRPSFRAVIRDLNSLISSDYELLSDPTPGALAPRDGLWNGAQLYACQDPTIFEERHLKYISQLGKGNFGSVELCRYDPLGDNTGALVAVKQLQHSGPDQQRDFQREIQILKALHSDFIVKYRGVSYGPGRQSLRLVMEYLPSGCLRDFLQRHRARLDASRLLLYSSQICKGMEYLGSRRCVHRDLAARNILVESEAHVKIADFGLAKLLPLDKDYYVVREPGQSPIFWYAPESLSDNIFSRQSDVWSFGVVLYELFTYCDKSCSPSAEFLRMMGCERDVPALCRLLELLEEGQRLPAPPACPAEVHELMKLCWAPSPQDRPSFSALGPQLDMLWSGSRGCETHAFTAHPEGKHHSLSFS

[10] = target: MAP3K6 (Homo sapiens, UniProt O95382)
Chain of MAP3K6 (O95382 whole entry): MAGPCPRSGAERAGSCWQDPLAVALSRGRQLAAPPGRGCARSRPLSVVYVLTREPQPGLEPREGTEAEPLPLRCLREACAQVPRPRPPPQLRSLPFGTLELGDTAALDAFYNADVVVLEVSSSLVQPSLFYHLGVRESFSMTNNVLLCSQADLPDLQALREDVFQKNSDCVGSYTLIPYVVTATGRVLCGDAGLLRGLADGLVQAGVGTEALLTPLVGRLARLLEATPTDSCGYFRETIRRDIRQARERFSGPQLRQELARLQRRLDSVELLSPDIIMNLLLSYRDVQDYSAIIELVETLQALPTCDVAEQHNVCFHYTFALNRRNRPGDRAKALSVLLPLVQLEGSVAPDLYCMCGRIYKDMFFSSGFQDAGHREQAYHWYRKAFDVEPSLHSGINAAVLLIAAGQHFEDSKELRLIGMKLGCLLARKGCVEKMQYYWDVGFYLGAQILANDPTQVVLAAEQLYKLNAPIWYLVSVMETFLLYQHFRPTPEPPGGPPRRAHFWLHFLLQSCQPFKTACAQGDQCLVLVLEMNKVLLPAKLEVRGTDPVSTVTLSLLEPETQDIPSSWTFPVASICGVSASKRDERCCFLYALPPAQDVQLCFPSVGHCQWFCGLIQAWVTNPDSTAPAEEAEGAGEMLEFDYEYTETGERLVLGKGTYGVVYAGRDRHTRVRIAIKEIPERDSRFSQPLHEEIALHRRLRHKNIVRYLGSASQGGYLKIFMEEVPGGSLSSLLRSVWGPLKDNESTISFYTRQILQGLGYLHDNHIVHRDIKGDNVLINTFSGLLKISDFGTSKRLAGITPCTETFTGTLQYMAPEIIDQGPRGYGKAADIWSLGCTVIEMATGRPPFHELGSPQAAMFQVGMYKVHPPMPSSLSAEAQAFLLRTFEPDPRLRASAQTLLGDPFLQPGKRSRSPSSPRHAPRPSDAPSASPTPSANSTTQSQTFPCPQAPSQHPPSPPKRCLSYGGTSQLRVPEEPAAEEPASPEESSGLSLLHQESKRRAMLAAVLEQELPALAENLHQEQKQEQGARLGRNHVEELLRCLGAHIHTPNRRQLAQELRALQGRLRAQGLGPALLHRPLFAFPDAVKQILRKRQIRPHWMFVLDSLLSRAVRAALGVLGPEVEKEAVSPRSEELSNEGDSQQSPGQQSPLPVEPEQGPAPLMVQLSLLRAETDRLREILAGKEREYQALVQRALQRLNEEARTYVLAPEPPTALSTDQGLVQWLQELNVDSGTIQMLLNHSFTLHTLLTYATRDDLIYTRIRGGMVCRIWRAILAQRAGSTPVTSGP

[11] = target: MET (Homo sapiens, UniProt P08581)
[12] = target: PDXK (Homo sapiens, UniProt O00764)
[13] = target: PIM2 (Homo sapiens, UniProt Q9P1W9)
[14] = target: PKMYT1 (Homo sapiens, UniProt Q99640)
[15] = target: RIOK2 (Homo sapiens, UniProt Q9BVS4)
[16] = target: STK16 (Homo sapiens, UniProt O75716)
[17] = target: STK17A (Homo sapiens, UniProt Q9UEE5)
[18] = target: TBK1 (Homo sapiens, UniProt Q9UHD2)
[19] = target: TTK (Homo sapiens, UniProt P33981)
[20] = target: ULK1 (Homo sapiens, UniProt O75385)
[21] = target: YES1 (Homo sapiens, UniProt P07947)

Measured: IC50

COc1ccccc1-c1n[nH]c2nc(N[C@H]3CC[C@H](NS(=O)(=O)CCC(F)(F)F)CC3)nc(OC)c12 [compound 31, 3,3,3-Trifluoro-N-(trans-4-((4-methoxy-3-(2-methoxyphenyl)-1H-pyrazolo[3,4-d]pyrimidin-6-yl)amino)cyclohexyl)propane-1-sulfonamide]
≥ 20 µM: all assays above
